Source: US20190314334A1, “COMPOUNDS FOR THE TREATMENT OF AUTOIMMUNE DISEASES” (QUIMATRYX, S.L., priority 2016, published 2019)

Tests used:
PLP-induced EAE = experiment: PLP-induced experimental autoimmune encephalomyelitis (EAE), clinical grading; assay type: in vivo, Female SJL mice
[1] = system: Concanavalin A (ConA)-induced hepatitis; experiment: Concanavalin A (ConA)-induced hepatitis model of autoimmune hepatitis, plasma transaminase (GPT); assay type: in vivo, Male Balb/C mice; conditions: blood 8 hours after ConA, vehicle 1338 U/L
Method: Concanavalin A (ConA)-induced hepatitis is a cell-mediated immunoinflammatory condition that can be induced in mice by a single intravenous injection of ConA. It is typically employed as a model for autoimmune hepatitis. The disease is characterized by a marked increase in the plasma levels of transaminase (GPT) shortly (8-24 hours) after ConA challenge and simultaneous infiltration of the liver with neutrophils, macrophages and T cells followed by apoptosis and necrosis of the hepatocytes. The aim of the present example was to evaluate the effects of a compound of formula (I) (QTX125) on histological and clinical parameters in the model of autoimmune hepatitis induced by ConA. Male Balb/C mice 7-8 weeks old (Envigo, San Pietro al Natisone, Udine, Italy) were kept under standard laboratory conditions (non-specific pathogen free) with free access to food and water and were allowed to adapt at least one week to their environment before commencing the study. ConA (Sigma Chemical, St. Louis, Mo.), was dissolved in sterile phosphate-buffered saline (PBS) and was injected into the tail veins of the animals at the dose of 20 mg/Kg. Three groups of 10 mice were treated at −24 and −1 hours before ConA injection as described in the table below: [table] […] The depth of colour is itself determined by the concentration of analyte in the sample.

[2] = system: experimental autoimmune encephalomyelitis induced by myelin oligodendrocyte glycoprotein (MOG); experiment: MOG-induced experimental autoimmune encephalomyelitis (EAE), paralysis scores; assay type: in vivo, mice; conditions: variant of Example 2
Method: A variant of the animal model of Example 2 was tested. In particular, experimental autoimmune encephalomyelitis was induced by subcutaneous injection of myelin oligodendrocyte glycoprotein (MOG) instead of PLP.

Structure (SMILES): O=C(NO)c1ccc(CNC(=O)c2[nH]c(-c3ccc(O)cc3)cc2-c2ccoc2)cc1 [QTX125]
- EAE clinical grading (mouse condition) with respect to vehicle (PLP-induced EAE; 60 mg/Kg i.p. daily for 35 consecutive days, day 7 to day 42 post immunization): substantial improvement of mouse condition
- EAE clinical grading (mouse condition) with respect to dexamethasone (PLP-induced EAE; 60 mg/Kg i.p. daily vs dexamethasone 0.3 mg/Kg, greater part of the treatment, particularly at the end): even ameliorated with respect to dexamethasone
- transaminase (GPT) plasma level (light emission) ([1]; 25 mg/Kg i.p. 24 and 1 hour before ConA (20 mg/Kg i.v.)): 606 U/L
- transaminase (GPT) plasma level (light emission) ([1]; 50 mg/Kg i.p. 24 and 1 hour before ConA (20 mg/Kg i.v.)): 543 U/L
- paralysis scores (EAE clinical grading) [2]: reduced paralysis scores
